pIC50: −log10 of the molar value.
These compounds were tested against T1, Ubiquitin carboxyl-terminal hydrolase 30 (Homo sapiens, UniProt Q70CQ3) (assay: USP30 Biochemical IC50 Assay).
T1 sequence (Q70CQ3 whole entry): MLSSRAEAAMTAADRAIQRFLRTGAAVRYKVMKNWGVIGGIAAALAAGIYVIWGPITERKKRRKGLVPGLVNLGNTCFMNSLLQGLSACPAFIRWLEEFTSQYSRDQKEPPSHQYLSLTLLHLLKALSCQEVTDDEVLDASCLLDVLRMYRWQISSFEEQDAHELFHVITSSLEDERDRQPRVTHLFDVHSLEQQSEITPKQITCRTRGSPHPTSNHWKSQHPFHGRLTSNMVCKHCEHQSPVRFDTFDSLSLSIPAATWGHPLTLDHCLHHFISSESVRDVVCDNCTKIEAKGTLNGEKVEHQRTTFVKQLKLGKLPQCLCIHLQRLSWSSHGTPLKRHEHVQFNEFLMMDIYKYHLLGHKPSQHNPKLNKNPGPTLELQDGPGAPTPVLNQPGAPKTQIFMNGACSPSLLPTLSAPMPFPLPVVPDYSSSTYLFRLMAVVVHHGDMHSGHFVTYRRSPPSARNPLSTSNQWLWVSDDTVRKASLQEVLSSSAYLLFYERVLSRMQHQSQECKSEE
Experimental: Dilution plates were prepared at 21 times the final concentration (2100 µM for a final concentration of 100 µM) in 50% DMSO in a 96-well polypropylene V-bottom plate (Greiner #651201). A typical 8-point dilution series would be 100, 30, 10, 3, 1, 0.3, 0.1, 0.03 µM final. Reactions were performed in duplicate in black 384 well plates (small volume, Greiner 784076) in a final reaction volume of 21 µl. Either 1 µl of 50% DMSO or diluted compound was added to the plate. USP30 (Boston Biochem #E582) was diluted in reaction buffer (40 mM Tris, pH 7.5, 0.005% Tween 20, 0.5 mg/ml BSA, 5 mM beta-mercaptoethanol) to achieve a final assay concentration of 4 nM, and 10 µl of diluted USP30 was added to the compound. Enzyme and compound were incubated for 30 min at room temp. Reactions were initiated by the addition of 50 nM of TAMRA labelled peptide linked to ubiquitin via an iso-peptide bond as fluorescence polarisation substrate. Reactions were read immediately after addition of substrate and following a 2-hour incubation at room temperature. Readings were performed on a Pherastar Plus (BMG Labtech). λ Excitation 540 nm; λ Emission 590 nm.

pIC50	SMILES
8.70	COc1ccc(C#N)cc1-c1cnc(C(=O)N[C@@H]2C[C@@H](C)N(C#N)C2)o1 [US20230303547, Example 4]
8.52	COC[C@@H]1C[C@@H](NC(=O)c2ncc(-c3cc(C#N)ccc3OC3CC3)o2)CN1C#N [US20230303547, Example 2]
9.00	N#Cc1ccc(OC2CC2)c(-c2cnc(C(=O)N[C@@H]3C[C@@H](CF)N(C#N)C3)o2)c1 [US20230303547, Example 3]
8.52	C[C@@H]1C[C@@H](NC(=O)c2ncc(-c3cc(C#N)ccc3OC3CC3)o2)CN1C#N [US20230303547, Example 1]

Source: BindingDB's records for patent US20230303547 (Mission Therapeutics, 2023)
